Measured values from PMC4917279 (Journal of Medicinal Chemistry, 2016).

Assays:
[1] = Caco2 drug permeability assay; type: in vitro ADME; conditions: human, Caco-2, pH 7.2
Procedure: Caco-2 cells (purchased from DSMZ Braunschweig, Germany) were seeded at a density of 4.5 × 10^4 cell per well on 24-well insert plates, 0.4 μm pore size, and grown for 15 days in DMEM medium supplemented with 10% fetal bovine serum, 1% GlutaMAX (100×, GIBCO), 100 μg/mL penicillin, 100 μg/mL streptomycin (GIBCO), and 1% nonessential amino acids (100×). Cells were maintained at 37 °C in a humified 5% CO2 atmosphere. Medium was changed every second to third day. Before running the permeation assay, the culture medium was replaced by an FCS-free Hepes-carbonate transport buffer (pH 7.2). For assessment of monolayer integrity, the transepithelial electrical resistance (TEER) was measured. Test compounds were dissolved in DMSO and added either to the apical or basolateral compartment in a final concentration of 2 μM. Before and after incubation at 37 °C, samples were taken from both compartments. Analysis of compound content was performed following precipitation with methanol and LC/MS/MS analysis. Permeability (Papp) was calculated in the apical to basolateral (A → B) and basolateral to apical (B → A) directions. The apparent permeability was calculated using following equation: [drawing 3] where Vr = volume of medium in the receiver chamber, P0 = measured peak area of the test drug in the donor chamber at t = 0, S = surface area of the monolayer, P2 = measured peak area of the test drug in the acceptor chamber after incubation for 2 h, and t = incubation time. The efflux ratio basolateral (B) to apical (A) was calculated by dividing Papp (B–A) by Papp (A–B). In addition, the compound recovery was calculated. Reference compounds were analyzed in parallel as assay controls. All samples were analyzed by LC/MS/MS.

[2] = Exposure and tolerability after oral administration to mice; type: in vivo; conditions: 10–100 mg/kg po qd
[3] = biological target: T1, ABL1(H396P)-nonphosphorylated (Homo sapiens, UniProt P00519, H396P); experiment: KINOMEscan; type: binding; conditions: read-out: %Ctrl @ 1000 nM
T1 construct: purchased DiscoveRx (KINOMEscan service)

[4] = biological target: T2, ABL1(T315I)-nonphosphorylated (Homo sapiens, UniProt P00519, T315I); experiment: KINOMEscan; type: binding; conditions: read-out: %Ctrl @ 1000 nM
T2 construct: purchased DiscoveRx (KINOMEscan service)

ACVR1 = biological target: T3, ACVR1 (Homo sapiens, UniProt Q04771); experiment: KINOMEscan; type: binding; conditions: read-out: %Ctrl @ 1000 nM
T3 construct: purchased DiscoveRx

AKT1 = biological target: T4, AKT1 (Homo sapiens, UniProt P31749); experiment: KINOMEscan; type: binding; conditions: read-out: %Ctrl @ 1000 nM
T4 construct: purchased DiscoveRx KINOMEscan

ASK2 = biological target: T5, ASK2 (Homo sapiens, UniProt O95382); experiment: KINOMEscan; type: binding; conditions: read-out: %Ctrl @ 1000 nM
T5 construct: purchased DiscoveRx KINOMEscan

BRK = biological target: T6, BRK (Homo sapiens, UniProt Q13882); experiment: KINOMEscan; type: binding; conditions: read-out: %Ctrl @ 1000 nM
T6 construct: purchased DiscoveRx KINOMEscan

BRSK1 = biological target: T7, BRSK1 (Homo sapiens, UniProt Q8TDC3); experiment: KINOMEscan; type: binding; conditions: read-out: %Ctrl @ 1000 nM
T7 construct: purchased DiscoveRx KINOMEscan

CDK7 = biological target: T8, CDK7 (Homo sapiens, UniProt P50613); experiment: KINOMEscan; type: binding; conditions: read-out: %Ctrl @ 1000 nM
T8 construct: purchased DiscoveRx KINOMEscan

CSF1R-autoinhibited = biological target: T9, CSF1R-autoinhibited (Homo sapiens, UniProt P07333); experiment: KINOMEscan; type: binding; conditions: read-out: %Ctrl @ 1000 nM
T9 construct: purchased DiscoveRx KINOMEscan

DAPK3 = biological target: T10, DAPK3 (Homo sapiens, UniProt O43293); experiment: KINOMEscan; type: binding; conditions: read-out: %Ctrl @ 1000 nM
T10 construct: purchased DiscoveRx KINOMEscan

EIF2AK1 = biological target: T11, EIF2AK1 (Homo sapiens, UniProt Q9BQI3); experiment: KINOMEscan; type: binding; conditions: read-out: %Ctrl @ 1000 nM
T11 construct: purchased DiscoveRx KINOMEscan

ERN1 = biological target: T12, ERN1 (Homo sapiens, UniProt O75460); experiment: KINOMEscan; type: binding; conditions: read-out: %Ctrl @ 1000 nM
T12 construct: purchased DiscoveRx KINOMEscan

FLT3(N841I) = biological target: T13, FLT3(N841I) (Homo sapiens, UniProt P36888, N841I); experiment: KINOMEscan; type: binding; conditions: read-out: %Ctrl @ 1000 nM
T13 construct: purchased DiscoveRx KINOMEscan

FYN = biological target: T14, FYN (Homo sapiens, UniProt P06241); experiment: KINOMEscan; type: binding; conditions: read-out: %Ctrl @ 1000 nM
T14 construct: purchased DiscoveRx KINOMEscan

GRK7 = biological target: T15, GRK7 (Homo sapiens, UniProt Q8WTQ7); experiment: KINOMEscan; type: binding; conditions: read-out: %Ctrl @ 1000 nM
T15 construct: purchased DiscoveRx KINOMEscan

[5] = biological target: T16, JAK1(JH2domain-pseudokinase) (Homo sapiens, UniProt P23458); experiment: KINOMEscan; type: binding; conditions: read-out: %Ctrl @ 1000 nM
T16 construct: JAK1(JH2domain-pseudokinase); purchased DiscoveRx KINOMEscan

MAP3K2 = biological target: T17, MAP3K2 (Homo sapiens, UniProt Q9Y2U5); experiment: KINOMEscan; type: binding; conditions: read-out: %Ctrl @ 1000 nM
T17 construct: purchased DiscoveRx KINOMEscan

MAP4K5 = biological target: T18, MAP4K5 (Homo sapiens, UniProt Q9Y4K4); experiment: KINOMEscan; type: binding; conditions: read-out: %Ctrl @ 1000 nM
T18 construct: purchased DiscoveRx KINOMEscan

MARK2 = biological target: T19, MARK2 (Homo sapiens, UniProt Q7KZI7); experiment: KINOMEscan; type: binding; conditions: read-out: %Ctrl @ 1000 nM
T19 construct: purchased DiscoveRx KINOMEscan

MEK5 = biological target: T20, MEK5 (Homo sapiens, UniProt Q13163); experiment: KINOMEscan; type: binding; conditions: read-out: %Ctrl @ 1000 nM
T20 construct: purchased DiscoveRx KINOMEscan

MST2 = biological target: T21, MST2 (Homo sapiens, UniProt Q13188); experiment: KINOMEscan; type: binding; conditions: read-out: %Ctrl @ 1000 nM
T21 construct: purchased DiscoveRx KINOMEscan

MYLK2 = biological target: T22, MYLK2 (Homo sapiens, UniProt Q9H1R3); experiment: KINOMEscan; type: binding; conditions: read-out: %Ctrl @ 1000 nM
T22 construct: purchased DiscoveRx KINOMEscan

PAK4 = biological target: T23, PAK4 (Homo sapiens, UniProt O96013); experiment: KINOMEscan; type: binding; conditions: read-out: %Ctrl @ 1000 nM
T23 construct: purchased DiscoveRx KINOMEscan

PFPK5(P.falciparum) = biological target: T24, PFPK5(P.falciparum) (Plasmodium falciparum, UniProt P61075); experiment: KINOMEscan; type: binding; conditions: read-out: %Ctrl @ 1000 nM
T24 construct: purchased DiscoveRx KINOMEscan

PHKG1 = biological target: T25, PHKG1 (Homo sapiens, UniProt Q16816); experiment: KINOMEscan; type: binding; conditions: read-out: %Ctrl @ 1000 nM
T25 construct: purchased DiscoveRx KINOMEscan

PIK3CA(I800L) = biological target: T26, PIK3CA(I800L) (Homo sapiens, UniProt P42336, I800L); experiment: KINOMEscan; type: binding; conditions: read-out: %Ctrl @ 1000 nM
T26 construct: purchased DiscoveRx KINOMEscan

PIP5K1A = biological target: T27, PIP5K1A (Homo sapiens, UniProt Q99755); experiment: KINOMEscan; type: binding; conditions: read-out: %Ctrl @ 1000 nM
T27 construct: purchased DiscoveRx KINOMEscan

PRKCH = biological target: T28, PRKCH (Homo sapiens, UniProt P24723); experiment: KINOMEscan; type: binding; conditions: read-out: %Ctrl @ 1000 nM
T28 construct: purchased DiscoveRx KINOMEscan

TBK1 = biological target: T29, TBK1 (Homo sapiens, UniProt Q9UHD2); experiment: KINOMEscan; type: binding; conditions: read-out: %Ctrl @ 1000 nM
T29 construct: purchased DiscoveRx KINOMEscan

TNIK = biological target: T30, TNIK (Homo sapiens, UniProt Q9UKE5); experiment: KINOMEscan; type: binding; conditions: read-out: %Ctrl @ 1000 nM
T30 construct: purchased DiscoveRx KINOMEscan

ZAK = biological target: T31, ZAK (Homo sapiens, UniProt Q9NYL2); experiment: KINOMEscan; type: binding; conditions: read-out: %Ctrl @ 1000 nM
T31 construct: purchased DiscoveRx

T18 sequence (Q9Y4K4 whole entry): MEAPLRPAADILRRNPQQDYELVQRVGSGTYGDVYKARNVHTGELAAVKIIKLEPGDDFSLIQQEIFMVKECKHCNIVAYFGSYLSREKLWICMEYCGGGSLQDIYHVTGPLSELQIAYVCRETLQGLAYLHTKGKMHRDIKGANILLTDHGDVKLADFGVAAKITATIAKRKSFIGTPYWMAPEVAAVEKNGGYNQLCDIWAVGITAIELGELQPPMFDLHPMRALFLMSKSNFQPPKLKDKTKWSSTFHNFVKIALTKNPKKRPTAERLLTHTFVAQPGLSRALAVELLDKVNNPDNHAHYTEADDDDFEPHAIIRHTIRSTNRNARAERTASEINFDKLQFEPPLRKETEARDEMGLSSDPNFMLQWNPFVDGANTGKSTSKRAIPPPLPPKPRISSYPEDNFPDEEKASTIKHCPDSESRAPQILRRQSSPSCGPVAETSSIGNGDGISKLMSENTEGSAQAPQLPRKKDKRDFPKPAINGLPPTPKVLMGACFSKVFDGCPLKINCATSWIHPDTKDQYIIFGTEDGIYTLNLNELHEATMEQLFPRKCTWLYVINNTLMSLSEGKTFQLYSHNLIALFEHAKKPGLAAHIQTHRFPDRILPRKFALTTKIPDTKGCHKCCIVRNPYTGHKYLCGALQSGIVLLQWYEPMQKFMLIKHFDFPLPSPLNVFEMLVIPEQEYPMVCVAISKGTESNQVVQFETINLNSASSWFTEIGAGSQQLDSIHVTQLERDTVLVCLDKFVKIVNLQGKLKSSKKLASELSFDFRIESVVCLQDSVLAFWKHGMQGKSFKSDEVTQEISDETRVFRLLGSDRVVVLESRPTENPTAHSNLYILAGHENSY
T17 sequence (Q9Y2U5 whole entry): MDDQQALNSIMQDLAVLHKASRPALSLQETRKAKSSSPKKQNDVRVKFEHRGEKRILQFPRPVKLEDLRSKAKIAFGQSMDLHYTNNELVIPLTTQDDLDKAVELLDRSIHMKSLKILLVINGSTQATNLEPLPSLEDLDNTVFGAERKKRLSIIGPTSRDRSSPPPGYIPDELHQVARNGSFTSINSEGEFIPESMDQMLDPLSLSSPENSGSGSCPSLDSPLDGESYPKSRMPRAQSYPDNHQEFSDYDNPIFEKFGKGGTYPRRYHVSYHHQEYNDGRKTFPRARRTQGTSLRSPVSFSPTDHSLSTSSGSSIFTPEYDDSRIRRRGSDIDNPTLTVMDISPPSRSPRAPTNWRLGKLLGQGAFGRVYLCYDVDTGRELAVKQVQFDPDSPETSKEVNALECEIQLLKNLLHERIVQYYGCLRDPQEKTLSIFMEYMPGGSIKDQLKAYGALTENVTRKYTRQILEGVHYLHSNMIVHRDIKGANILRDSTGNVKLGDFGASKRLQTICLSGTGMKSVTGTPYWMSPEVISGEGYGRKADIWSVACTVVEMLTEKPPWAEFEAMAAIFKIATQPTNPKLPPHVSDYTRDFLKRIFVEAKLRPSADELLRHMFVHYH
T4 sequence (P31749 whole entry): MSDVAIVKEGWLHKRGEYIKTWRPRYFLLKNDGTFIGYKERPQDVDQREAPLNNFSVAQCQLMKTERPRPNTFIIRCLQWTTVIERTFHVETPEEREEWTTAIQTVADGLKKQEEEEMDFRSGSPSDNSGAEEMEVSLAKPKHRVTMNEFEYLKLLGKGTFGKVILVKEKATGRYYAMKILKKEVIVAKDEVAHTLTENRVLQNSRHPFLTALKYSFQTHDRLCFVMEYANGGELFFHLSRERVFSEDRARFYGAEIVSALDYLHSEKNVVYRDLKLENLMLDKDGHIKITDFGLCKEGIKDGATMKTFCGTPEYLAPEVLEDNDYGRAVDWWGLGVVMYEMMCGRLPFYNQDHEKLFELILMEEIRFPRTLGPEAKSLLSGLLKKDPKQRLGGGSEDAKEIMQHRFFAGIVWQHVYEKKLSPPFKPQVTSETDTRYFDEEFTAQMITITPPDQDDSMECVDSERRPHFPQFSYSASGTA
T15 sequence (Q8WTQ7 whole entry): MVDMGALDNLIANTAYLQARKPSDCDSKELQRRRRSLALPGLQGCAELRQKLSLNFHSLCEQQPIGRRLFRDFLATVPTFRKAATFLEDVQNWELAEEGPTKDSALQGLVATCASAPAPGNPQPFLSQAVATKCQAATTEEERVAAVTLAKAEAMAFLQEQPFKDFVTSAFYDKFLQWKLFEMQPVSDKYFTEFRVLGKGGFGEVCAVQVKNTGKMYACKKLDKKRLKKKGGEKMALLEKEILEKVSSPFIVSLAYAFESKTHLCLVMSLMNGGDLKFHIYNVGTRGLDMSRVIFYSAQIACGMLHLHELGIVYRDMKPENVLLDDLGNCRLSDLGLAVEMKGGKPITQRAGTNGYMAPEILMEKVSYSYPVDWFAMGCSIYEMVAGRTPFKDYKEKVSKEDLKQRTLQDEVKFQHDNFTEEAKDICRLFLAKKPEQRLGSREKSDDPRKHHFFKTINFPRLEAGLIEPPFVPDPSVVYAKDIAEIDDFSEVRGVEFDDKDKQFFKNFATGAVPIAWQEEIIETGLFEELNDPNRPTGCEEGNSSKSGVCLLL
T11 sequence (Q9BQI3 whole entry): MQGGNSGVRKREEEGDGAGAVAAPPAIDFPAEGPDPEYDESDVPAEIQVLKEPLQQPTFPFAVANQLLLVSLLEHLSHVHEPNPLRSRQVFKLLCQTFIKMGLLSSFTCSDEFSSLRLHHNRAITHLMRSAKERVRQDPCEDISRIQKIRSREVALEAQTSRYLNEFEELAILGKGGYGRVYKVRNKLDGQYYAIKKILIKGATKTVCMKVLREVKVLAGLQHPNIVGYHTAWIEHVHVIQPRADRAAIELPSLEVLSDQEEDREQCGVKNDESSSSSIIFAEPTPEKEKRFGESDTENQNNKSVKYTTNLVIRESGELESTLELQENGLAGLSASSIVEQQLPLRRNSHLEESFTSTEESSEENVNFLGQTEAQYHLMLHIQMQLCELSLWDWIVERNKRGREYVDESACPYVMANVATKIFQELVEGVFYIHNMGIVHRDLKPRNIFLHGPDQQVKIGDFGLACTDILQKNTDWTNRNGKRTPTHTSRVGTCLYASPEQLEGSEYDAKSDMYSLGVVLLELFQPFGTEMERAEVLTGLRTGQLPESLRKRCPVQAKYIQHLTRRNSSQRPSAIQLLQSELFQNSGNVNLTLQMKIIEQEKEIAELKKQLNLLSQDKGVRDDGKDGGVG
T28 sequence (P24723 whole entry): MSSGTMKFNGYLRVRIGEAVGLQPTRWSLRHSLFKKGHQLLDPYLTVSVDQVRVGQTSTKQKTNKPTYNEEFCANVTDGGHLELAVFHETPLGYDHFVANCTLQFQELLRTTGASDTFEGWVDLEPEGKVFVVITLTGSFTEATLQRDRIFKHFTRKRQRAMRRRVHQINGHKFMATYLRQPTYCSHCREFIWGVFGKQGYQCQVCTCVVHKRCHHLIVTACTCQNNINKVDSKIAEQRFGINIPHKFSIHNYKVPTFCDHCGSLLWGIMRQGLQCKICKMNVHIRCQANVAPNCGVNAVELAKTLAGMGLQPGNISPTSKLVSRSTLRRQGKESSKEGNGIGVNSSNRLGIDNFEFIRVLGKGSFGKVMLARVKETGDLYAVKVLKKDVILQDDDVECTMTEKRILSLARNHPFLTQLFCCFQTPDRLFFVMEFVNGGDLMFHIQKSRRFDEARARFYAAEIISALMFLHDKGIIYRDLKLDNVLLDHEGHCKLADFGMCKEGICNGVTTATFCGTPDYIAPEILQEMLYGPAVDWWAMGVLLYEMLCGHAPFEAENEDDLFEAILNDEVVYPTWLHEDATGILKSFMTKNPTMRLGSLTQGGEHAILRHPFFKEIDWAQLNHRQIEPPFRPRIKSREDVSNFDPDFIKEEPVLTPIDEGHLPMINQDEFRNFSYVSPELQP
T8 sequence (P50613 whole entry): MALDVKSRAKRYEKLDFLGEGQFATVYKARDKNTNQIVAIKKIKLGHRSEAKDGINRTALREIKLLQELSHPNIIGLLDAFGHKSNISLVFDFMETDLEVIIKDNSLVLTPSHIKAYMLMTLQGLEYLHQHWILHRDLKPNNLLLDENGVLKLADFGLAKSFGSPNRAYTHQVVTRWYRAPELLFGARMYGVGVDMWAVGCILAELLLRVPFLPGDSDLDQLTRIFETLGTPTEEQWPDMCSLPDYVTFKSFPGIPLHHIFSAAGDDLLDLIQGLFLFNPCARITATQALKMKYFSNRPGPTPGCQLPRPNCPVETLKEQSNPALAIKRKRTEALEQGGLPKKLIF
T3 sequence (Q04771 21-509): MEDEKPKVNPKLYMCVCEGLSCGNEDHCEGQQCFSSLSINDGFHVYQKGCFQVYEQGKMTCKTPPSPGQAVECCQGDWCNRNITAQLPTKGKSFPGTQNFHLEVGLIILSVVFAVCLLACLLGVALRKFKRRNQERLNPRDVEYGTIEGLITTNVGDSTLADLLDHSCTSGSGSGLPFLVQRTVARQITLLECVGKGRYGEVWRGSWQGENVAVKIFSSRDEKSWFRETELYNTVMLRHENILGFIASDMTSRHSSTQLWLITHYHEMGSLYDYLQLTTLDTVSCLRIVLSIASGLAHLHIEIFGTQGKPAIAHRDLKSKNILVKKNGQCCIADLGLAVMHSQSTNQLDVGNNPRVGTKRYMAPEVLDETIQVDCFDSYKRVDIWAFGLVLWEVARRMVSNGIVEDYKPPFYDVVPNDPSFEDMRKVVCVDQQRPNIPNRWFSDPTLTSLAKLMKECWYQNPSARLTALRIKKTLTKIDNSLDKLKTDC
T16 sequence (P23458 583-855 limits assumed): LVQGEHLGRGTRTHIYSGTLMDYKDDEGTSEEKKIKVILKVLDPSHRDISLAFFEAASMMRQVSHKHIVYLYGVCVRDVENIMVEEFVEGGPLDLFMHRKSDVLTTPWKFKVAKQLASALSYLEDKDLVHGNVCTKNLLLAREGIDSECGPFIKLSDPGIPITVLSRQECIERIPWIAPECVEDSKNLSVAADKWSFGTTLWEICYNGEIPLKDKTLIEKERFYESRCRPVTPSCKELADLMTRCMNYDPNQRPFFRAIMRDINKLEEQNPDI

SMILES: CCN(C(=O)CO)[C@H]1CN(/C(=N\C#N)Nc2cccc(OC(F)F)c2)N=C1c1ccc(Cl)c(Cl)c1 [(S)-4]
- Papp A→B at 2 h, 2 µM [1]: 3.4 ×10⁻⁶ cm/s
- Tolerability [2]: well tolerated
- remaining binding at 1 µM [3]: 92%
- remaining binding at 1 µM [4]: 77%
- remaining binding at 1 µM (ACVR1): 96%
- remaining binding at 1 µM (AKT1): 84%
- remaining binding at 1 µM (ASK2): 93%
- remaining binding at 1 µM (BRK): 73%
- remaining binding at 1 µM (BRSK1): 100%
- remaining binding at 1 µM (CDK7): 98%
- remaining binding at 1 µM (CSF1R-autoinhibited): 47%
- remaining binding at 1 µM (DAPK3): 94%
- remaining binding at 1 µM (EIF2AK1): 100%
- remaining binding at 1 µM (ERN1): 93%
- remaining binding at 1 µM (FLT3(N841I)): 95%
- remaining binding at 1 µM (FYN): 71%
- remaining binding at 1 µM (GRK7): 100%
- remaining binding at 1 µM [5]: 100%
- remaining binding at 1 µM (MAP3K2): 100%
- remaining binding at 1 µM (MAP4K5): 100%
- remaining binding at 1 µM (MARK2): 99%
- remaining binding at 1 µM (MEK5): 100%
- remaining binding at 1 µM (MST2): 88%
- remaining binding at 1 µM (MYLK2): 100%
- remaining binding at 1 µM (PAK4): 91%
- remaining binding at 1 µM (PFPK5(P.falciparum)): 100%
- remaining binding at 1 µM (PHKG1): 97%
- remaining binding at 1 µM (PIK3CA(I800L)): 90%
- remaining binding at 1 µM (PIP5K1A): 70%
- remaining binding at 1 µM (PRKCH): 80%
- remaining binding at 1 µM (TBK1): 82%
- remaining binding at 1 µM (TNIK): 100%
- remaining binding at 1 µM (ZAK): 95%
